{"source": "BigSolDB 2.1", "data": [{"smiles": "CN1CCN(c2c(F)cc3c(=O)c(C(=O)O)cn4c3c2OCN4C)CC1", "values": [{"measurement": "solubility (mole fraction)", "setting": "in 1,4-dioxane, 288.15 K", "value": 0.000114}, {"measurement": "solubility (mole fraction)", "setting": "in 1,4-dioxane, 293.15 K", "value": 0.000132}, {"measurement": "solubility (mole fraction)", "setting": "in 1,4-dioxane, 298.15 K", "value": 0.000153}, {"measurement": "solubility (mole fraction)", "setting": "in 1,4-dioxane, 303.15 K", "value": 0.000188}, {"measurement": "solubility (mole fraction)", "setting": "in 1,4-dioxane, 308.15 K", "value": 0.00023}, {"measurement": "solubility (mole fraction)", "setting": "in 1,4-dioxane, 313.15 K", "value": 0.00028}, {"measurement": "solubility (mole fraction)", "setting": "in 1,4-dioxane, 318.15 K", "value": 0.000348}, {"measurement": "solubility (mole fraction)", "setting": "in 1,4-dioxane, 323.15 K", "value": 0.000427}, {"measurement": "solubility (mole fraction)", "setting": "in 1,4-dioxane, 328.15 K", "value": 0.000512}, {"measurement": "solubility (mole fraction)", "setting": "in THF, 288.15 K", "value": 0.000432}, {"measurement": "solubility (mole fraction)", "setting": "in THF, 293.15 K", "value": 0.000508}, {"measurement": "solubility (mole fraction)", "setting": "in THF, 298.15 K", "value": 0.000591}, {"measurement": "solubility (mole fraction)", "setting": "in THF, 303.15 K", "value": 0.00068}, {"measurement": "solubility (mole fraction)", "setting": "in THF, 308.15 K", "value": 0.000777}, {"measurement": "solubility (mole fraction)", "setting": "in THF, 313.15 K", "value": 0.000887}, {"measurement": "solubility (mole fraction)", "setting": "in THF, 318.15 K", "value": 0.001}, {"measurement": "solubility (mole fraction)", "setting": "in THF, 323.15 K", "value": 0.00113}, {"measurement": "solubility (mole fraction)", "setting": "in THF, 328.15 K", "value": 0.00125}, {"measurement": "solubility (mole fraction)", "setting": "in acetone, 283.15 K", "value": 0.000219}, {"measurement": "solubility (mole fraction)", "setting": "in acetone, 288.15 K", "value": 0.000266}, {"measurement": "solubility (mole fraction)", "setting": "in acetone, 293.15 K", "value": 0.000316}, {"measurement": "solubility (mole fraction)", "setting": "in acetone, 298.15 K", "value": 0.000367}, {"measurement": "solubility (mole fraction)", "setting": "in acetone, 303.15 K", "value": 0.000425}, {"measurement": "solubility (mole fraction)", "setting": "in acetone, 308.15 K", "value": 0.000488}, {"measurement": "solubility (mole fraction)", "setting": "in acetone, 313.15 K", "value": 0.00057}, {"measurement": "solubility (mole fraction)", "setting": "in acetone, 318.15 K", "value": 0.000678}, {"measurement": "solubility (mole fraction)", "setting": "in acetone, 323.15 K", "value": 0.000796}, {"measurement": "solubility (mole fraction)", "setting": "in acetonitrile, 283.15 K", "value": 0.000122}, {"measurement": "solubility (mole fraction)", "setting": "in acetonitrile, 288.15 K", "value": 0.000147}, {"measurement": "solubility (mole fraction)", "setting": "in acetonitrile, 293.15 K", "value": 0.000172}, {"measurement": "solubility (mole fraction)", "setting": "in acetonitrile, 298.15 K", "value": 0.000213}, {"measurement": "solubility (mole fraction)", "setting": "in acetonitrile, 303.15 K", "value": 0.00025}, {"measurement": "solubility (mole fraction)", "setting": "in acetonitrile, 308.15 K", "value": 0.000298}, {"measurement": "solubility (mole fraction)", "setting": "in acetonitrile, 313.15 K", "value": 0.000345}, {"measurement": "solubility (mole fraction)", "setting": "in acetonitrile, 318.15 K", "value": 0.000422}, {"measurement": "solubility (mole fraction)", "setting": "in acetonitrile, 323.15 K", "value": 0.000509}, {"measurement": "solubility (mole fraction)", "setting": "in ethanol, 283.15 K", "value": "6.66e-05"}, {"measurement": "solubility (mole fraction)", "setting": "in ethanol, 288.15 K", "value": "7.84e-05"}, {"measurement": "solubility (mole fraction)", "setting": "in ethanol, 293.15 K", "value": "9.47e-05"}, {"measurement": "solubility (mole fraction)", "setting": "in ethanol, 298.15 K", "value": 0.000117}, {"measurement": "solubility (mole fraction)", "setting": "in ethanol, 303.15 K", "value": 0.000144}, {"measurement": "solubility (mole fraction)", "setting": "in ethanol, 308.15 K", "value": 0.000175}, {"measurement": "solubility (mole fraction)", "setting": "in ethanol, 313.15 K", "value": 0.000217}, {"measurement": "solubility (mole fraction)", "setting": "in ethanol, 318.15 K", "value": 0.000264}, {"measurement": "solubility (mole fraction)", "setting": "in ethanol, 323.15 K", "value": 0.000326}, {"measurement": "solubility (mole fraction)", "setting": "in ethyl acetate, 283.15 K", "value": 0.000154}, {"measurement": "solubility (mole fraction)", "setting": "in ethyl acetate, 288.15 K", "value": 0.000172}, {"measurement": "solubility (mole fraction)", "setting": "in ethyl acetate, 293.15 K", "value": 0.000197}, {"measurement": "solubility (mole fraction)", "setting": "in ethyl acetate, 298.15 K", "value": 0.000226}, {"measurement": "solubility (mole fraction)", "setting": "in ethyl acetate, 303.15 K", "value": 0.000255}, {"measurement": "solubility (mole fraction)", "setting": "in ethyl acetate, 308.15 K", "value": 0.000288}, {"measurement": "solubility (mole fraction)", "setting": "in ethyl acetate, 313.15 K", "value": 0.000326}, {"measurement": "solubility (mole fraction)", "setting": "in ethyl acetate, 318.15 K", "value": 0.000378}, {"measurement": "solubility (mole fraction)", "setting": "in ethyl acetate, 323.15 K", "value": 0.000432}, {"measurement": "solubility (mole fraction)", "setting": "in isopropanol, 283.15 K", "value": "5.13e-05"}, {"measurement": "solubility (mole fraction)", "setting": "in isopropanol, 288.15 K", "value": "6.16e-05"}, {"measurement": "solubility (mole fraction)", "setting": "in isopropanol, 293.15 K", "value": "7.5e-05"}, {"measurement": "solubility (mole fraction)", "setting": "in isopropanol, 298.15 K", "value": "9.22e-05"}, {"measurement": "solubility (mole fraction)", "setting": "in isopropanol, 303.15 K", "value": 0.000107}, {"measurement": "solubility (mole fraction)", "setting": "in isopropanol, 308.15 K", "value": 0.00013}, {"measurement": "solubility (mole fraction)", "setting": "in isopropanol, 313.15 K", "value": 0.000164}, {"measurement": "solubility (mole fraction)", "setting": "in isopropanol, 318.15 K", "value": 0.000204}, {"measurement": "solubility (mole fraction)", "setting": "in isopropanol, 323.15 K", "value": 0.000259}, {"measurement": "solubility (mole fraction)", "setting": "in methanol, 283.15 K", "value": 0.000127}, {"measurement": "solubility (mole fraction)", "setting": "in methanol, 288.15 K", "value": 0.000147}, {"measurement": "solubility (mole fraction)", "setting": "in methanol, 293.15 K", "value": 0.000173}, {"measurement": "solubility (mole fraction)", "setting": "in methanol, 298.15 K", "value": 0.000204}, {"measurement": "solubility (mole fraction)", "setting": "in methanol, 303.15 K", "value": 0.000249}, {"measurement": "solubility (mole fraction)", "setting": "in methanol, 308.15 K", "value": 0.000295}, {"measurement": "solubility (mole fraction)", "setting": "in methanol, 313.15 K", "value": 0.000354}, {"measurement": "solubility (mole fraction)", "setting": "in methanol, 318.15 K", "value": 0.000435}, {"measurement": "solubility (mole fraction)", "setting": "in methanol, 323.15 K", "value": 0.000521}, {"measurement": "solubility (mole fraction)", "setting": "in n-butanol, 283.15 K", "value": "8.77e-05"}, {"measurement": "solubility (mole fraction)", "setting": "in n-butanol, 288.15 K", "value": 0.0001}, {"measurement": "solubility (mole fraction)", "setting": "in n-butanol, 293.15 K", "value": 0.000116}, {"measurement": "solubility (mole fraction)", "setting": "in n-butanol, 298.15 K", "value": 0.00014}, {"measurement": "solubility (mole fraction)", "setting": "in n-butanol, 303.15 K", "value": 0.000169}, {"measurement": "solubility (mole fraction)", "setting": "in n-butanol, 308.15 K", "value": 0.000204}, {"measurement": "solubility (mole fraction)", "setting": "in n-butanol, 313.15 K", "value": 0.000254}, {"measurement": "solubility (mole fraction)", "setting": "in n-butanol, 318.15 K", "value": 0.000316}, {"measurement": "solubility (mole fraction)", "setting": "in n-butanol, 323.15 K", "value": 0.000408}, {"measurement": "solubility (mole fraction)", "setting": "in n-propanol, 283.15 K", "value": "8.29e-05"}, {"measurement": "solubility (mole fraction)", "setting": "in n-propanol, 288.15 K", "value": "9.58e-05"}, {"measurement": "solubility (mole fraction)", "setting": "in n-propanol, 293.15 K", "value": 0.000114}, {"measurement": "solubility (mole fraction)", "setting": "in n-propanol, 298.15 K", "value": 0.000136}, {"measurement": "solubility (mole fraction)", "setting": "in n-propanol, 303.15 K", "value": 0.000164}, {"measurement": "solubility (mole fraction)", "setting": "in n-propanol, 308.15 K", "value": 0.000202}, {"measurement": "solubility (mole fraction)", "setting": "in n-propanol, 313.15 K", "value": 0.000253}, {"measurement": "solubility (mole fraction)", "setting": "in n-propanol, 318.15 K", "value": 0.000315}, {"measurement": "solubility (mole fraction)", "setting": "in n-propanol, 323.15 K", "value": 0.000391}, {"measurement": "solubility (mole fraction)", "setting": "in tert-amyl alcohol, 283.15 K", "value": "7.86e-05"}, {"measurement": "solubility (mole fraction)", "setting": "in tert-amyl alcohol, 288.15 K", "value": "9.12e-05"}, {"measurement": "solubility (mole fraction)", "setting": "in tert-amyl alcohol, 293.15 K", "value": 0.000107}, {"measurement": "solubility (mole fraction)", "setting": "in tert-amyl alcohol, 298.15 K", "value": 0.000122}, {"measurement": "solubility (mole fraction)", "setting": "in tert-amyl alcohol, 303.15 K", "value": 0.00014}, {"measurement": "solubility (mole fraction)", "setting": "in tert-amyl alcohol, 308.15 K", "value": 0.00017}, {"measurement": "solubility (mole fraction)", "setting": "in tert-amyl alcohol, 313.15 K", "value": 0.000202}, {"measurement": "solubility (mole fraction)", "setting": "in tert-amyl alcohol, 318.15 K", "value": 0.00024}, {"measurement": "solubility (mole fraction)", "setting": "in tert-amyl alcohol, 323.15 K", "value": 0.00029}, {"measurement": "solubility (mole fraction)", "setting": "in toluene, 283.15 K", "value": "4.91e-05"}, {"measurement": "solubility (mole fraction)", "setting": "in toluene, 288.15 K", "value": "6.13e-05"}, {"measurement": "solubility (mole fraction)", "setting": "in toluene, 293.15 K", "value": "7.24e-05"}, {"measurement": "solubility (mole fraction)", "setting": "in toluene, 298.15 K", "value": "8.74e-05"}, {"measurement": "solubility (mole fraction)", "setting": "in toluene, 303.15 K", "value": 0.000102}, {"measurement": "solubility (mole fraction)", "setting": "in toluene, 308.15 K", "value": 0.000117}, {"measurement": "solubility (mole fraction)", "setting": "in toluene, 313.15 K", "value": 0.000135}, {"measurement": "solubility (mole fraction)", "setting": "in toluene, 318.15 K", "value": 0.000155}, {"measurement": "solubility (mole fraction)", "setting": "in toluene, 323.15 K", "value": 0.00018}]}]}
